Measured values reported in ChEMBL document CHEMBL1132672, “Substituted 7H-pyrido[4,3-c]carbazoles with potent anti-HIV activity” (Bioorg Med Chem Lett, 1999).
Converted amounts (≈) assume the structure as drawn.

Experiments:
[1] = test system: H9; assay: Inhibitory concentration required to inhibit HIV replication in H9 lymphocytes growth by 50%; type: functional, cell-based; details: Homo sapiens
[2] = test system: H9; assay: Inhibitory concentration required to inhibit uninfected H9 lymphocytic cell growth by 50%; type: functional, cell-based; details: Homo sapiens
[3] = Therapeutic index(TI) was evaluated (IC50/EC50); details: read-out: TI

SMILES | EC50 [1] [µg/mL] | IC50 [2] [µg/mL] | selectivity ratio [3]
COc1cc2c(c3ccccc3n2C)c2c(NCCN3CCCCC3)nccc12 | 0.005 (≈ 0.0129 µM) | 0.24 (≈ 0.618 µM) | 47.9
COc1cc2c(c3ccccc3n2C)c2c(NCCN)nccc12 | 0.022 (≈ 0.0687 µM) | 0.23 (≈ 0.718 µM) | 10.6
COc1cc2c(c3ccccc3n2C)c2c(Cl)nccc12 | 0.19 (≈ 0.64 µM) | 26 (≈ 87.6 µM) | 136
COc1cc2c(c3cc(O)ccc3n2C)c2c(Cl)nccc12 | 1.4 (≈ 4.48 µM) | 5 (≈ 16 µM) | 3.6
COc1cc2c(c3ccccc3n2C)c2c(NCCCO)nccc12 | 0.001 (≈ 0.00298 µM) | 0.15 (≈ 0.447 µM) | 153
COc1cc2c(c3ccccc3n2C)c2c(NCCN(C)C)nccc12 | 0.026 (≈ 0.0746 µM) | 0.23 (≈ 0.66 µM) | 8.9
COc1cc2c(c3cnccc13)c1ccccc1n2C | 0.0054 (≈ 0.0206 µM) | 2.7 (≈ 10.3 µM) | 503
